The results in this text go back to ChEMBL document CHEMBL3286093 (J Med Chem, 2014).

Each structure is given as a SMILES string. pEC50, pIC50: −log10 of the molar value. Active and inactive are the calls of the source. The calls are words filed in the database; no cut-off is given here.

The nature of one data set: in vitro. The note with it: human, HepG2 cells.
Data set [1] can be described thus: Cytotoxicity against human HepG2 cells after 48 hrs by Celltiter-Glo assay. Type of data set: cell-based. The note with it: HepG2 cells, read-out: TC50. For orientation: Cellular ATP, detected with luciferase, serves as a proxy for viable cell number.
The test system of data set [2] is Trypanosoma brucei brucei. Kind of data set: microbe, parasite or virus in culture. The following applies: Lister 427, 70 h.
Description: Antitrypanosomal activity against bloodstream Trypanosoma brucei brucei Lister 427 after 70 hrs by resazurin assay
Data set [3] concerns Trypanosoma brucei brucei. The data set is described as follows: Inhibition of receptor-mediated endocytosis in Trypanosoma brucei brucei Lister 427 assessed as decrease in transferrin uptake at 2 X EC50 after 18 hrs. It counts as functional, organism-based.
For data set [4], the system named is Trypanosoma brucei brucei. Kind of data set: Decrease in phosphotidyl inositol phosphate level in Trypanosoma brucei brucei Lister 427 at 200 nM after 12 hrs by ES-MS analysis. Type of data set: functional, organism-based.
Data set [5] relates to Trypanosoma brucei brucei. The data set is described as follows: Effect on phosphotidyl inositol level in Trypanosoma brucei brucei Lister 427 at 200 nM after 12 hrs by ES-MS analysis. Type of data set: functional, organism-based.
The subject of data set [6] is Trypanosoma brucei brucei. Kind of data set: Antitrypanosomal activity against bloodstream Trypanosoma brucei brucei Lister 427 assessed as decrease in number of cell at G1 phase after 18 hrs by PI staining based flow cytometer. Type of data set: functional, organism-based. (In general: A flow cytometer gives signals particle by particle.)
The target in data set [7] is Phosphatidylinositol 4,5-bisphosphate 3-kinase catalytic subunit gamma isoform (Homo sapiens, UniProt P48736). Kind of data set: Inhibition of human PI3K-gamma assessed as inhibition of […] after 1 hr by TR-FRET analysis. (TR-FRET usually uses a lanthanide donor and a delayed reading to cut background.)
Sequence of Phosphatidylinositol 4,5-bisphosphate 3-kinase catalytic subunit gamma isoform (P48736 whole entry, canonical isoform): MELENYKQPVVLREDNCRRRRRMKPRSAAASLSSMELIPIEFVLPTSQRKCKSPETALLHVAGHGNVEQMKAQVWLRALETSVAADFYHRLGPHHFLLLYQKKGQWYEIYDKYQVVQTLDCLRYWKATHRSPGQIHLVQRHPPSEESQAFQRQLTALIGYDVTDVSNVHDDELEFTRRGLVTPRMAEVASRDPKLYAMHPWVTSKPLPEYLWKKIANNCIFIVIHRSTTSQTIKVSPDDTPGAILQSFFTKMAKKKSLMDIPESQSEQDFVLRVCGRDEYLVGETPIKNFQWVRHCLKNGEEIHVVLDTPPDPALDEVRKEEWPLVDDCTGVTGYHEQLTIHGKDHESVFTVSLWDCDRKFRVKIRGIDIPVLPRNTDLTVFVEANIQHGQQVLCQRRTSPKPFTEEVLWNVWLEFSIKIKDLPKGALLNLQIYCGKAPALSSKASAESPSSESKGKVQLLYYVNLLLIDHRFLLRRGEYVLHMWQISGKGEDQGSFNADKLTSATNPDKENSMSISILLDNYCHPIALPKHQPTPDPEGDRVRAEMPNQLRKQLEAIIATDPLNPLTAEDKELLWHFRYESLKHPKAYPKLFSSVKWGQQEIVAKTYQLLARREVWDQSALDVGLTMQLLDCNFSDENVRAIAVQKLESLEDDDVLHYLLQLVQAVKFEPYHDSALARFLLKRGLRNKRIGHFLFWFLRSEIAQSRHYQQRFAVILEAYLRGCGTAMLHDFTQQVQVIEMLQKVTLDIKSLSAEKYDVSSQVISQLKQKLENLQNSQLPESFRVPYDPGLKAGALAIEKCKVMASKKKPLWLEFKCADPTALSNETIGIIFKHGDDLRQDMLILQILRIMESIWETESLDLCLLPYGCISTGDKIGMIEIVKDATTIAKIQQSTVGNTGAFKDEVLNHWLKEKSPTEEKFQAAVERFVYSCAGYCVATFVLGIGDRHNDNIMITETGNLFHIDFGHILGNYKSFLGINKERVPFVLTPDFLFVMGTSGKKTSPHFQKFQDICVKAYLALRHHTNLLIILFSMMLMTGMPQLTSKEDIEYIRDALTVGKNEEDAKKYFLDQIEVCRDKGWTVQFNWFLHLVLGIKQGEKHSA
Data set [8] addresses T1, Phosphatidylinositol 4,5-bisphosphate 3-kinase catalytic subunit delta isoform (Homo sapiens, UniProt O00329).
T1 sequence (O00329 whole entry): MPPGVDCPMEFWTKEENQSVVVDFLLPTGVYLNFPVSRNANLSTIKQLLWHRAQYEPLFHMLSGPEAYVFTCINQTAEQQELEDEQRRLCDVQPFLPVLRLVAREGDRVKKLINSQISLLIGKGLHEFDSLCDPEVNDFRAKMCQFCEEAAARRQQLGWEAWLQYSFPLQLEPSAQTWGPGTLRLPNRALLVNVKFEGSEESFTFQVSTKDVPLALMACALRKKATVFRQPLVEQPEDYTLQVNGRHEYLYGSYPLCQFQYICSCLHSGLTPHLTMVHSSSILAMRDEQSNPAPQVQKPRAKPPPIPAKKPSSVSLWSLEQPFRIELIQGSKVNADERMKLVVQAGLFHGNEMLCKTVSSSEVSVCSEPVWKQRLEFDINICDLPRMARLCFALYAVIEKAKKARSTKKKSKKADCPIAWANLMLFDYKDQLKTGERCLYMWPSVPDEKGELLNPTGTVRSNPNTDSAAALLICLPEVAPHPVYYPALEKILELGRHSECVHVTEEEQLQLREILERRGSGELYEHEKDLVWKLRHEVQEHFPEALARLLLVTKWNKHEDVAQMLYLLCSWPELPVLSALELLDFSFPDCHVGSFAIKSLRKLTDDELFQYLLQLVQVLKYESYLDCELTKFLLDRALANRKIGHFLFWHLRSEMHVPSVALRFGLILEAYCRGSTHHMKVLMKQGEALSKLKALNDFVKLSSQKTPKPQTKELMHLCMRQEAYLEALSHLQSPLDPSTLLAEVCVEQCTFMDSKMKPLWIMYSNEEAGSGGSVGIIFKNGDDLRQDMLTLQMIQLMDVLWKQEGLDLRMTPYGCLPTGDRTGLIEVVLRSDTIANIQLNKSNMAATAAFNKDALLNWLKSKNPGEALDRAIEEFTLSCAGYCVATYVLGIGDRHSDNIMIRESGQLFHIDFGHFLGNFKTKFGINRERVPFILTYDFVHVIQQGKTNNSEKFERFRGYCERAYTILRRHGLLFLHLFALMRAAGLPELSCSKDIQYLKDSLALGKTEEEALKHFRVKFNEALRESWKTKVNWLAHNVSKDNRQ
The data set is described as follows: Inhibition of human PI3K-delta assessed as inhibition of […] after 1 hr by TR-FRET analysis.

A short description of data set [9]: Apparent permeability across artificial membrane after 3 hrs by HPLC analysis. It counts as physicochemical.
Data set [10] concerns the target Phosphatidylinositol 4,5-bisphosphate 3-kinase catalytic subunit beta isoform (Homo sapiens, UniProt P42338). Kind of data set: Inhibition of human PI3K-beta assessed as inhibition of […] after 1 hr by TR-FRET analysis.
Data set [11] has as its system Trypanosoma brucei brucei. Kind of data set: Effect on phosphatidylcholine level in Trypanosoma brucei brucei Lister 427 at 200 nM after 12 hrs by ES-MS analysis. It counts as functional, organism-based.
Data set [12] deals with Phosphatidylinositol 4,5-bisphosphate 3-kinase catalytic subunit alpha isoform (Homo sapiens, UniProt P42336). Kind of data set: Inhibition of human PI3K-alpha assessed as inhibition of […] after 1 hr by TR-FRET analysis.
Sequence of Phosphatidylinositol 4,5-bisphosphate 3-kinase catalytic subunit alpha isoform (P42336 whole entry, canonical isoform): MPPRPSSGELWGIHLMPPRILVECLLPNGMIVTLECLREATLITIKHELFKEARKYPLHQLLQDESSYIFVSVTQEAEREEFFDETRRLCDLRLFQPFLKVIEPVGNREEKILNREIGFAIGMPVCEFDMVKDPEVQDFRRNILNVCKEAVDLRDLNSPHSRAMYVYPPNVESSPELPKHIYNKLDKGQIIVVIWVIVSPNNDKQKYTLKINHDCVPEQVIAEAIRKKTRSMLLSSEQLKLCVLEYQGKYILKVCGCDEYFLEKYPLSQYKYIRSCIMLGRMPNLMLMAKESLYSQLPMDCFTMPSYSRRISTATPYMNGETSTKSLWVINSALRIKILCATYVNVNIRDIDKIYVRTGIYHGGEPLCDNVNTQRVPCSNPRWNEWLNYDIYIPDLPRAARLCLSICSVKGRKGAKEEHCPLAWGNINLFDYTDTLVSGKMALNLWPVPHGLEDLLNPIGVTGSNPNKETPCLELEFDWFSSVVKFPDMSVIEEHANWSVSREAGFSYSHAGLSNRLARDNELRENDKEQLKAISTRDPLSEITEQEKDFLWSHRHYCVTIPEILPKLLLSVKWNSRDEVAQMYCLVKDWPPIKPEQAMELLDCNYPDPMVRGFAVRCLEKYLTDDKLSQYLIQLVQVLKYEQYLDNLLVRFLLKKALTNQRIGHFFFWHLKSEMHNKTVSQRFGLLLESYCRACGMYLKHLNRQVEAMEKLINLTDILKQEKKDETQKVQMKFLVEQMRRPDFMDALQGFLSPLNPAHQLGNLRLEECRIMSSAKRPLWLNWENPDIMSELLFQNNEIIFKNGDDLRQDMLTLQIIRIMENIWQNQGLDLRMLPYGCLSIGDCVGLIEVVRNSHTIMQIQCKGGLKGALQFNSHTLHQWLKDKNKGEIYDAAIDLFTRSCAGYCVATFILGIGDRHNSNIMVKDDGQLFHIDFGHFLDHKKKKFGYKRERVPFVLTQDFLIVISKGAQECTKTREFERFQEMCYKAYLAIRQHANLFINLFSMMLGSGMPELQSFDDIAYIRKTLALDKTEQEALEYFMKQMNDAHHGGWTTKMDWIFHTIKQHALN
Data set [13] in a line: Lipophilicity, log D of the compound at pH 7.4 by HPLC analysis. Type of data set: physicochemical. The note with it: buffer.
Data set [14] concerns the target Serine/threonine-protein kinase mTOR (Homo sapiens, UniProt P42345). Kind of data set: Inhibition of human recombinant mTOR assessed as inhibition of 4EBP1 phosphorylation after 30 mins by TR-FRET analysis.
For data set [15], the system named is Trypanosoma brucei brucei. Kind of data set: Effect on sphingomylein level in Trypanosoma brucei brucei Lister 427 at 200 nM after 12 hrs by ES-MS analysis. It counts as functional, organism-based.

Sequence of Phosphatidylinositol 4,5-bisphosphate 3-kinase catalytic subunit beta isoform (P42338 whole entry, canonical isoform): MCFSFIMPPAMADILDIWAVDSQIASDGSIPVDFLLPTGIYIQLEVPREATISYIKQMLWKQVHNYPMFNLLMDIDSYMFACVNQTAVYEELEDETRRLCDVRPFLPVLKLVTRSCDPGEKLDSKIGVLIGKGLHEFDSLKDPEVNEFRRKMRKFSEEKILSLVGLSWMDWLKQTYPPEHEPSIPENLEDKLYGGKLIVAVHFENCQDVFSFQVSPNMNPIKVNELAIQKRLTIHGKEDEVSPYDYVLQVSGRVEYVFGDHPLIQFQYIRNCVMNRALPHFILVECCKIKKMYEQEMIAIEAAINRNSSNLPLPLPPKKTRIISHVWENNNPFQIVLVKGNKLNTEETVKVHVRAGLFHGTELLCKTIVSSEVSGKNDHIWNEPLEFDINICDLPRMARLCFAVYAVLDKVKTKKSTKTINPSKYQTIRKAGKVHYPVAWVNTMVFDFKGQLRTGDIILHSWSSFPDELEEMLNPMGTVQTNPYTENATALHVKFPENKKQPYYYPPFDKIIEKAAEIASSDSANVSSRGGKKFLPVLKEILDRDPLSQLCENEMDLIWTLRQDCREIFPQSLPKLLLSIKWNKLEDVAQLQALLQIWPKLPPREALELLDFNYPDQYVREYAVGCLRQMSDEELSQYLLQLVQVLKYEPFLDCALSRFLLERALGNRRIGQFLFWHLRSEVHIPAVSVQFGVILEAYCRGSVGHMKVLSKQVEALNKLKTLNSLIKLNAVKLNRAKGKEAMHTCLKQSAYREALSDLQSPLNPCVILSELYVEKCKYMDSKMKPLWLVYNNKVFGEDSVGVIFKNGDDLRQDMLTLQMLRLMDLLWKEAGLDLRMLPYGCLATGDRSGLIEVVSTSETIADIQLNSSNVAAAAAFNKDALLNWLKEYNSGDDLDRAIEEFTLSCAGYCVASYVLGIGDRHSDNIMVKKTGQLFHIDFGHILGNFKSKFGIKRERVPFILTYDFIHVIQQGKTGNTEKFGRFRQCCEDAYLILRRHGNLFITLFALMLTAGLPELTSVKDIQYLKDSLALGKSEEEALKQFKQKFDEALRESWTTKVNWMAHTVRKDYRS
Description for in vitro: Selectivity ratio TC50 for human HepG2 cells to EC50 for Trypanosoma brucei brucei Lister 427

On to `Cc1ccc2ncc3c(c2c1)n(-c1ccc(C(C)(C)C#N)cc1)c(=O)n3C`, for which, in the data set “in vitro”, the selectivity ratio is more than 10. Moreover, the CC50 at 48 h in data set [1] is more than 20 µM. For the same compound, the pEC50 in data set [2] was 5.70.
In the same order, the values of `Cn1c(=O)n(C)c2c3cc(-c4ccncc4)ccc3ncc21` are more than 6, more than 20 µM and 5.49.
In the same order, the values of `Cn1c(=O)n(-c2ccc(C(C)(C)C#N)cc2)c2c3cc(N)ccc3ncc21` are more than 4, more than 50 µM and 4.98.
As to `Cn1c(=O)n(-c2ccc(N3CCOCC3)cc2)c2c3cc(-c4ccncc4)ccc3ncc21`, the selectivity ratio in the data set “in vitro” was more than 24. In data set [1], the CC50 at 48 h was more than 7.6 µM. This compound showed a pEC50 in data set [2] of 6.50.
Taken in the same sequence, the figures for `CN1CCN(Cc2ccc(-n3c(=O)n(C)c4cnc5ccc(-c6ccncc6)cc5c43)cc2)CC1` were more than 2, more than 7.6 µM and 5.47.
On to `Cn1c(=O)n(-c2ccc(C(C)(C)C#N)cc2)c2c3cc(C#Cc4cccnc4)ccc3ncc21`, for which the selectivity ratio in the data set “in vitro” worked out at 17.5. In addition, in [1], the CC50 at 48 h turned out to be 0.14 µM. The compound also had a pEC50 in [2] of 8.10.
Consider `CN(C)c1ccc(-n2c(=O)[nH]c3cnc4ccccc4c32)cc1`, for which, in “in vitro”, the selectivity ratio was determined as 3. For the same compound, the CC50 at 48 h in [1] was 19.1 µM. The compound also had a pEC50 in [2] of 5.20.
Taken in the same sequence, the figures for `Cn1c(=O)n(-c2ccc(C(C)(C)C#N)cc2)c2c3cc(-c4cc5ccccc5s4)ccc3ncc21` were more than 460, more than 25 µM and 7.27.
In the same order, the values of `Cn1c(=O)n(-c2ccc(C(C)(C)C#N)cc2)c2c3cc(-c4ccc(C(F)(F)F)nc4)ccc3ncc21` are more than 470, more than 25 µM and 7.28.
Taken in the same sequence, the figures for `Cn1c(=O)n(-c2ccccc2)c2c3ccccc3ncc21` were more than 3, more than 50 µM and 4.73.
With `CN(C)c1ccc(-n2c(=O)n(C)c3cnc4ccc(-c5ccncc5)cc4c32)cc1`, in “in vitro”, the selectivity ratio was found to be 28. Further, the CC50 at 48 h in data set [1] is 2.34 µM. The compound further showed a pEC50 in data set [2] of 7.09.
`Cc1ccc2ncc3c(c2c1)n(-c1ccccc1)c(=O)n3C`: the selectivity ratio in “in vitro” is more than 39. Further, the CC50 at 48 h in data set [1] is more than 50 µM. In [2], this compound had a pEC50 of 5.89.
For `Cn1c(=O)n(-c2ccc(C(C)(C)C#N)cc2)c2c3cc(-c4ccccc4)ccc3ncc21`, in the data set “in vitro”, the selectivity ratio worked out at 11. Moreover, the CC50 at 48 h in data set [1] was 1.82 µM. The pEC50 in [2] was 6.80.
In the same order, the values of `Cn1c(=O)n(-c2ccc(C(C)(C)C#N)cc2)c2c3cc(-c4cccnc4)ccc3ncc21` are 36, 0.575 µM and 7.80.
On to `CN1CCN(c2ccc3ncc4c(c3c2)n(-c2ccc(C(C)(C)C#N)cc2)c(=O)n4C)CC1`, for which the CC50 at 48 h in data set [1] is more than 50 µM.
In the case of `Cn1c(=O)n(-c2ccc(C(F)(F)F)cc2)c2c3cc(-c4cnc5ccccc5c4)ccc3ncc21`, in “in vitro”, the selectivity ratio was more than 240. In addition, the CC50 at 48 h in data set [1] is more than 25 µM. In data set [2], this compound showed a pEC50 of 6.99.
In the same order, the values of `CC(=O)Nc1ccc2ncc3c(c2c1)n(-c1ccc(C(C)(C)C#N)cc1)c(=O)n3C` are more than 5, more than 50 µM and 5.04.
In the same order, the values of `N#Cc1ccc(-n2c(=O)[nH]c3cnc4ccc(-c5cnc6ccccc6c5)cc4c32)cc1` are more than 270, more than 50 µM and 6.74.
As for `Cn1cc(-c2ccc3ncc4c(c3c2)n(-c2ccc(C(C)(C)C#N)cc2)c(=O)n4C)cn1`, in [3], the inhibition result is “inactive”. Also, the inhibition result in data set [4] and in [6] was “Active” each time. Moreover, in data set [5], the outcome was Active. Moreover, the pIC50 in data set [7] is 6.90; in data set [8] it was 6.10; in [10], 5.10; in data set [12], 6.40; in data set [14], 5.93. The permeability result in [9] is “ND(Insoluble)”. The result in [11] and in data set [15] was inactive. The pEC50 in [2] was 7.29. The compound further showed a logD in data set [13] of 5.3.
Consider `Cn1c(=O)n(-c2ccc(C#N)cc2)c2c3cc(-c4cnc5ccccc5c4)ccc3ncc21`, for which the selectivity ratio in the data set “in vitro” is more than 540. In addition, the CC50 at 48 h in data set [1] is more than 50 µM. The pEC50 in data set [2] was 7.04.
Taken in the same sequence, the figures for `N#CCc1ccc(-n2c(=O)[nH]c3cnc4ccc(-c5ccncc5)cc4c32)cc1` were more than 250, more than 50 µM and 6.70.
In the same order, the values of `Cn1c(=O)n(-c2ccc(C(C)(C)C#N)cc2)c2c3cc(-c4ccncc4)ccc3ncc21` are 25, 3.43 µM and 6.87.
For `Cn1c(=O)n(-c2ccc(C(C)(C)C#N)cc2)c2c3ccccc3ncc21`, the selectivity ratio in “in vitro” was more than 80. The pIC50 in data set [7] is 5.70; in data set [8], 4.80; in data set [10], less than 4.52; in data set [12] it was 5.40; in data set [14] it was 5.79. In data set [9], the permeability was determined as 570 nm/s. Also, the CC50 at 48 h in data set [1] was more than 50 µM. Further, the pEC50 in data set [2] is 6.20. This compound gave a logD in data set [13] of 4.69.
As to `Cn1c(=O)n(-c2ccccc2)c2c3cc(-c4cnc5ccccc5c4)ccc3ncc21`, in “in vitro”, the selectivity ratio is more than 1000. Further, the CC50 at 48 h in data set [1] is more than 25 µM. In data set [2], this compound had a pEC50 of 7.62.
Take `CN(C)c1ccc(-n2c(=O)n(C)c3cnc4ccccc4c32)cc1`: the selectivity ratio in the data set “in vitro” came out at 0.3. In addition, the CC50 at 48 h in data set [1] came to 3 µM. This compound also had a pEC50 in [2] of 5.03.
Taken in the same sequence, the figures for `Cc1ccc(-n2c(=O)n(C)c3cnc4ccc(-c5ccc(C(=O)O)cc5)cc4c32)cc1` were more than 5, more than 50 µM and 5.00.
In the same order, the values of `CN(C)c1ccc(-n2c(=O)[nH]c3cnc4ccc(-c5ccncc5)cc4c32)cc1` are more than 1100, more than 50 µM and 7.38.
In the same order, the values of `Cn1c(=O)n(-c2ccc(C(C)(C)C#N)cc2)c2c3cc(N4CCOCC4)ccc3ncc21` are more than 24, more than 50 µM and 5.69.
Regarding `Cn1c(=O)n(-c2ccc(CC#N)cc2)c2c3cc(-c4ccncc4)ccc3ncc21`, the selectivity ratio in the data set “in vitro” is more than 560. The CC50 at 48 h in data set [1] was more than 50 µM. The compound further had a pEC50 in [2] of 7.06.

As usually defined, the pEC50 is the negative decadic logarithm of the EC50, by convention in mol/L. The pIC50 is the IC50 on a negative log10 scale, so that one unit is a factor of ten. As usually defined, the logD is the decadic logarithm of the distribution of all forms, ionised or not, between an organic phase and buffer at a given pH. A lower logD goes with lower lipophilicity.
